Results reported in ChEMBL document CHEMBL1201862, “PubChem BioAssay data set” (2004).
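Where inhibition never reached the appropriate level, the endpoint shown equals the highest concentration tested. Otherwise, values were interpolated linearly from a five-concentration, 48-hour dose response in 96-well plates. GI50 is the concentration that inhibits growth by half.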 Activity calls are given as the source filed them. No stated cut-off is given here; in the data, active = GI50 up to about 1.1 µM and inactive = higher.

How the values were obtained:
Experiment in all cases: growth of human tumour cells (NCI), 48 h
[1] = system: BT-549
[2] = system: HT-29
[3] = system: HOP-62
[4] = system: UO-31
[5] = system: SW-620
[6] = system: SF-295
[7] = system: Malme-3M
[8] = system: SK-OV-3
[9] = system: HCT-15
[10] = system: K562
[11] = system: NCI-H23
[12] = system: EKVX
[13] = system: A549
[14] = system: SK-MEL-5
[15] = system: NCI-H460
[16] = system: 786-0
[17] = system: SN12C
[18] = system: OVCAR-4
[19] = system: MDA-MB-231
[20] = system: T47D

SMILES	GI50 [1]	GI50 [2]	GI50 [3]	GI50 [4]	GI50 [5]	GI50 [6]	GI50 [7]	GI50 [8]	GI50 [9] [µM]	GI50 [10]	GI50 [11]	GI50 [12]	GI50 [13]	GI50 [14]	GI50 [15]	GI50 [16]	GI50 [17]	GI50 [18]	GI50 [19]	GI50 [20]
CC(=O)Oc1c(C)cc(-c2cc(C)c(OC(C)=O)c(C)c2)cc1C	10.8 µM (inactive)	45.4 µM (inactive)	45.7 µM (inactive)	26.9 µM (inactive)	10.2 µM (inactive)	23.7 µM (inactive)	89.3 µM (inactive)	19.5 µM (inactive)	20.3	> 100 µM (inactive)	15.4 µM (inactive)	37.3 µM (inactive)	42.4 µM (inactive)	25.4 µM (inactive)	39.9 µM (inactive)	36.3 µM (inactive)	47.1 µM (inactive)	82.6 µM (inactive)	–	–
COc1ccc(CNC(=O)NCn2cc(-c3ccccc3)nn2)cc1	> 100 µM (inactive)	> 100 µM (inactive)	> 100 µM (inactive)	–	> 100 µM (inactive)	> 100 µM (inactive)	> 100 µM (inactive)	–	> 100	> 100 µM (inactive)	> 100 µM (inactive)	> 100 µM (inactive)	> 100 µM (inactive)	> 100 µM (inactive)	> 100 µM (inactive)	> 100 µM (inactive)	> 100 µM (inactive)	> 100 µM (inactive)	> 100 µM (inactive)	–
Nc1c(Cl)ncnc1N[C@@H]1C[C@H]1CO	> 100 µM (inactive)	> 100 µM (inactive)	> 100 µM (inactive)	> 100 µM (inactive)	> 100 µM (inactive)	> 100 µM (inactive)	–	–	> 100	> 100 µM (inactive)	> 100 µM (inactive)	> 100 µM (inactive)	> 100 µM (inactive)	> 100 µM (inactive)	> 100 µM (inactive)	> 100 µM (inactive)	> 100 µM (inactive)	> 100 µM (inactive)	> 100 µM (inactive)	> 100 µM (inactive)
Nc1ncnc2c1ncn2C1OC(COC2C(CO)OC(OC(C(=O)O)C(O)C(OP(=O)(O)O)C(O)C(=O)O)C(O)C2O)C(O)C1O (stereo unspecified)	> 100 µM (inactive)	> 100 µM (inactive)	> 100 µM (inactive)	–	> 100 µM (inactive)	> 100 µM (inactive)	45.7 µM (inactive)	> 100 µM (inactive)	> 100	> 100 µM (inactive)	> 100 µM (inactive)	> 100 µM (inactive)	> 100 µM (inactive)	> 100 µM (inactive)	> 100 µM (inactive)	> 100 µM (inactive)	–	> 100 µM (inactive)	> 100 µM (inactive)	–
O=C(O)c1cccc(S(=O)(=O)NN2C(=O)CSC2c2c(O)ccc3ccccc23)c1 (stereo unspecified)	–	29.9 µM (inactive)	47 µM (inactive)	33.4 µM (inactive)	21.1 µM (inactive)	29.3 µM (inactive)	26.5 µM (inactive)	37.7 µM (inactive)	42.5	31.3 µM (inactive)	21.7 µM (inactive)	45.8 µM (inactive)	41.5 µM (inactive)	21 µM (inactive)	34.7 µM (inactive)	39.4 µM (inactive)	36.9 µM (inactive)	28.9 µM (inactive)	26.8 µM (inactive)	22.5 µM (inactive)
CC(=O)c1sc2[n+](c1C)C(=O)/C(=C\c1ccccc1Cl)S2	–	20.6 µM (inactive)	22.8 µM (inactive)	19.3 µM (inactive)	17.3 µM (inactive)	16 µM (inactive)	17.5 µM (inactive)	25.1 µM (inactive)	14.1	25.5 µM (inactive)	19.3 µM (inactive)	26.8 µM (inactive)	19.6 µM (inactive)	11.3 µM (inactive)	16.3 µM (inactive)	21.9 µM (inactive)	34.2 µM (inactive)	29.2 µM (inactive)	25.4 µM (inactive)	15.7 µM (inactive)
COC(=O)[C@@H]1[C@H](O)CCC2=C(CC(=O)c3ccoc3)[C@H](C)CC[C@]21C	18.8 µM (inactive)	44.3 µM (inactive)	> 50 µM (inactive)	19.5 µM (inactive)	36.9 µM (inactive)	31.4 µM (inactive)	> 50 µM (inactive)	> 50 µM (inactive)	46.1	16.8 µM (inactive)	30.3 µM (inactive)	> 50 µM (inactive)	> 50 µM (inactive)	18.1 µM (inactive)	23.9 µM (inactive)	> 50 µM (inactive)	> 50 µM (inactive)	45 µM (inactive)	> 50 µM (inactive)	–
CCOc1cc(/C=N\N(C)C)cc(/C=N\N(C)C)c1O	–	42.3 µM (inactive)	50.8 µM (inactive)	29.4 µM (inactive)	53.3 µM (inactive)	41.3 µM (inactive)	32.4 µM (inactive)	29.4 µM (inactive)	35.2	> 100 µM (inactive)	> 100 µM (inactive)	71.6 µM (inactive)	> 100 µM (inactive)	22.1 µM (inactive)	30.1 µM (inactive)	42.7 µM (inactive)	54 µM (inactive)	> 100 µM (inactive)	43.1 µM (inactive)	11.7 µM (inactive)
